In paper PMC6966871 (Journal of Hematology & Oncology, 2020):

Key:
[1] = system: DDR2[h]; design: method as in unpublished data; settings: 0.2 μM in vitro; one range for all five kinases; ref unpublished data; cited from earlier work
[2] = system: AXL [h]; design: method as in unpublished data; settings: 0.2 μM in vitro; one range for all five kinases; ref unpublished data; cited from earlier work
[3] = system: Ron [h]; design: method as in unpublished data; settings: 0.2 μM in vitro; one range for all five kinases; ref unpublished data; cited from earlier work
[4] = system: advanced non-small cell lung cancer; experiment: Tumor response assessed by investigators per RECIST v1.1; type: in vivo, human (Chinese patients); settings: for Partial remission (PR) / Progressive disease (PD): number of patients (%)
[5] = system: phosphorylation of c-MET; settings: patient-derived xenograft tumors and MET-amplified cell lines, dose-dependent; cited from earlier work
[6] = system: lung adenocarcinoma patient-derived xenograft (PDX); settings: with overexpression of c-MET; ref our preclinical study; cited from earlier work
[7] = biological target: AXL kinase; settings: read-out: IC50 against AXL kinase; cited from earlier work
[8] = biological target: wild-type c-Met tyrosine kinase; settings: enzymatic assay; read-out: IC50 against wild-type c-Met tyrosine kinase; cited from earlier work
[9] = system: EBC-1 cell line; settings: read-out: IC50 against the growth of lung cancer EBC-1 cell line; cited from earlier work
[10] = system: c-MET [h]; design: method as in unpublished data; settings: 0.2 μM in vitro; one range for all five kinases; ref unpublished data; cited from earlier work
[11] = design: species or system human (Chinese patients); settings: human, in vivo
Description: (§1) For the single-dose PK test in the cycle 0, serial peripheral blood samples were collected at pre-dose and at 0.5, 1, 2, 3, 4, 6, 8, 12, 16, 24, 48, 72, and 144 h post-dose. For the continuous dose PK test in the cycle 1, serial peripheral blood samples were collected at pre-dose on days 8, 15, 22, and 28, and at 0.5, 1, 2, 3, 4, 5, 6, 8, 12, 16, 24, 48, and 72 h post-dose on day 28. All serial peripheral blood samples were collected in heparin sodium anticoagulation tubes and centrifuged at 1900g for 10 min before storage at − 80 °C until analysis.

[12] = system: KDR [h]; design: method as in unpublished data; settings: 0.2 μM in vitro; one range for all five kinases; ref unpublished data; cited from earlier work
[13] = Continuous dose (QD) pharmacokinetics (cycle 1, day 28) in patients; type: in vivo, human (Chinese patients); settings: continuous QD dosing, 100 mg to 800 mg
Description: as §1

[14] = system: VEGFR; design: method as in unpublished data; settings: preclinical; ref unpublished data; read-out: IC50 against VEGFR; cited from earlier work
[15] = 100 mg/qd group (printed 1 0 mg/qd), n = 4
[16] = 20 patients, AEs reported by > 20% of patients
[17] = safety population N = 20, 100–800 mg qd, number of patients (%)

O=C(Nc1ccc(Oc2ccnc3c2CCN3)c(F)c1)c1c[nH]cc(-c2ccc(F)cc2)c1=O
inhibition of DDR2[h] [1]: 88–100%
inhibition of AXL [h] [2]: 88–100%
inhibition of Ron [h] [3]: 88–100%
Disease control rate, % (95%CI) [4, 15]: 0 (NA, NA) %
Objective remission rate, % (95%CI) [4, 15]: 0 (NA, NA) %
Partial remission (PR) [4, 15]: 0
Progressive disease (PD) [4, 15]: 3 (100.0%)
Disease control rate, % (95%CI) ([4]; 200 mg/qd group, n = 3): 66.7 (9.43, 99.16) %
Objective remission rate, % (95%CI) ([4]; 200 mg/qd group, n = 3): 0 (NA, NA) %
Partial remission (PR) ([4]; 200 mg/qd group, n = 3): 0
Progressive disease (PD) ([4]; 200 mg/qd group, n = 3): 1 (33.3%)
Disease control rate, % (95%CI) ([4]; 300 mg/qd group, n = 3): 66.7 (9.43, 99.16) %
Objective remission rate, % (95%CI) ([4]; 300 mg/qd group, n = 3): 0 (NA, NA) %
Partial remission (PR) ([4]; 300 mg/qd group, n = 3): 0
Progressive disease (PD) ([4]; 300 mg/qd group, n = 3): 1 (33.3%)
Disease control rate, % (95%CI) ([4]; 450 mg/qd group, n = 4): 50.0 (6.76, 93.24) %
Objective remission rate, % (95%CI) ([4]; 450 mg/qd group, n = 4): 0 (NA, NA) %
Partial remission (PR) ([4]; 450 mg/qd group, n = 4): 0
Progressive disease (PD) ([4]; 450 mg/qd group, n = 4): 2 (50.0%)
Disease control rate, % (95%CI) ([4]; 600 mg/qd group, n = 3): 66.7 (9.43, 99.16) %
Objective remission rate, % (95%CI) ([4]; 600 mg/qd group, n = 3): 0 (NA, NA) %
Partial remission (PR) ([4]; 600 mg/qd group, n = 3): 0
Progressive disease (PD) ([4]; 600 mg/qd group, n = 3): 1 (33.3%)
Disease control rate, % (95%CI) ([4]; 800 mg/qd group, n = 3): 100.0(29.24,100.0) %
Objective remission rate, % (95%CI) ([4]; 800 mg/qd group, n = 3): 33.3 (0.84, 90.57) %
Partial remission (PR) ([4]; 800 mg/qd group, n = 3): 1 (33.3%)
Progressive disease (PD) ([4]; 800 mg/qd group, n = 3): 0
patients with tumor burden reduced from baseline ([4]; 19 evaluable patients): 53%
ORR ([4]; 19 evaluable patients, text (95% CI 0.1–26%)): 5%
DCR ([4]; 19 evaluable patients, text (95% CI 34–80%)): 58%
Disease control rate, % (95%CI) ([4]; Total, N = 20 (19 evaluable)): 57.9 (33.50, 79.75) %
Objective remission rate, % (95%CI) ([4]; Total, N = 20 (19 evaluable)): 5.3 (0.13, 26.03) %
Partial remission (PR) ([4]; Total, N = 20 (19 evaluable)): 1 (5.3%)
Progressive disease (PD) ([4]; Total, N = 20 (19 evaluable)): 8 (42.1%)
number of patients with a partial response ([4]; among 19 evaluable patients): 1
number of patients with stable disease ([4]; among 19 evaluable patients): 10 patients
DCR ([4]; patients (n = 11) with MET gene amplification or c-MET overexpression, exploratory): 82%
ORR ([4]; patients without MET dysregulation (eight patients), exploratory): 0%
AEs (any grades) leading to dose adjustment (600 mg/qd group): one patient
AEs (any grades) leading to dose discontinuation (600 mg/qd group n = 2, 800 mg/qd group n = 2): four patients
TRAE of grade 3 or higher: hypertension (20 patients): 15%
TRAE of grade 3 or higher: laryngeal pain (20 patients): 5%
TRAE of grade 3 or higher: pulmonary embolism (20 patients): 5%
TRAE: constipation (20 patients): 30%
TRAE: dysgeusia (20 patients): 40%
TRAE: increased ALT / ALT elevation (20 patients): 40%
gastrointestinal symptoms such as vomiting and diarrhea, frequency reported (20 patients): ≤ 10%
patients experiencing grade 3 AEs (20 patients): 45%
rate of dose reduction due to AEs (20 patients): 5%
patients with TRAEs of grade 3 or higher during treatment (20 patients (300 mg/qd n = 1; 600 mg/qd n = 2; 800 mg/qd n = 1)): 20%
patients with treatment-related AEs (20 patients, 100–800 mg qd): 85%
TRAE: palmar-plantar erythrodysesthesia syndrome (20 patients, abstract): 15%
TRAE: hypertension (20 patients, any grade): 25%
AE (any cause): constipation [16]: 40%
AE (any cause): dysgeusia [16]: 40%
AE (any cause): hypertension [16]: 25%
AE (any cause): increased alanine transaminase (ALT) [16]: 40%
AE (any cause): increased conjugated bilirubin [16]: 25%
AE (any cause): increased hemobilirubin [16]: 25%
AE (any cause): nausea [16]: 25%
dose-limiting toxicity (DLT) (doses up to 800 mg once daily): No dose-limiting toxicity (DLT) was observed
maximum tolerated dose (MTD) (maximum dose investigated 800 mg QD): not reached
serious adverse events (pulmonary embolism, 600 mg/qd group, probably related to study treatment): One serious adverse event
Treatment-related adverse event: Constipation, Grade ≥ 3 [17]: 0
Treatment-related adverse event: Constipation, any grade [17]: 6 (30%)
Treatment-related adverse event: Dysgeusia, Grade ≥ 3 [17]: 0
Treatment-related adverse event: Dysgeusia, any grade [17]: 8 (40%)
Treatment-related adverse event: Hypertension, Grade ≥ 3 [17]: 3 (15%)
Treatment-related adverse event: Hypertension, any grade [17]: 5 (25%)
Treatment-related adverse event: Increase AST, Grade ≥ 3 [17]: 0
Treatment-related adverse event: Increase AST, any grade [17]: 4 (20%)
Treatment-related adverse event: Increased ALT, Grade ≥ 3 [17]: 0
Treatment-related adverse event: Increased ALT, any grade [17]: 8 (40%)
Treatment-related adverse event: Increased conjugated bilirubin, Grade ≥ 3 [17]: 0
Treatment-related adverse event: Increased conjugated bilirubin, any grade [17]: 5 (25%)
Treatment-related adverse event: Increased creatine phosphokinase, Grade ≥ 3 [17]: 0
Treatment-related adverse event: Increased creatine phosphokinase, any grade [17]: 3 (15%)
Treatment-related adverse event: Increased gamma-glutamyltransferase, Grade ≥ 3 [17]: 0
Treatment-related adverse event: Increased gamma-glutamyltransferase, any grade [17]: 4 (20%)
Treatment-related adverse event: Increased hemobilirubin, Grade ≥ 3 [17]: 0
Treatment-related adverse event: Increased hemobilirubin, any grade [17]: 5 (25%)
Treatment-related adverse event: Increased unconjugated bilirubin, Grade ≥ 3 [17]: 0
Treatment-related adverse event: Increased unconjugated bilirubin, any grade [17]: 3 (15%)
Treatment-related adverse event: Palmar-plantar erythrodysesthesia, Grade ≥ 3 [17]: 0
Treatment-related adverse event: Palmar-plantar erythrodysesthesia, any grade [17]: 3 (15%)
Treatment-related adverse event: Papulosis, Grade ≥ 3 [17]: 0
Treatment-related adverse event: Papulosis, any grade [17]: 2 (10%)
patients with drug discontinuation due to treatment-related AE (two patients in 600 mg/qd group and one in 800 mg/qd group): 15%
phosphorylation of c-MET and downstream signaling targets (ERK, AKT) [5]: inhibits the phosphorylation of c-MET
tumor growth of lung adenocarcinoma [6]: significantly inhibited tumor growth
IC50 [7]: 9 nM
IC50 [8]: 6 nM
IC50 [9]: 120 nM
inhibition of c-MET [h] [10]: 88–100%
dose at which exposure (AUC and Cmax) reached saturation [11]: 600 mg
dose proportionality of maximal plasma concentration (Cmax) [11]: increased obviously less than dose proportionally
dose proportionality of plasma exposure (AUC0–last) [11]: increased slightly less than dose proportionally
mean t1/2 (half-life) [11]: 7.9 to 37.3 h
inhibition of KDR [h] [12]: 88–100%
time after which steady-state concentration was reached [13]: 28 days
IC50 [14]: 30 nM
